Broadly, the MIC is the least concentration at which growth counts as inhibited.

Each structure is given as a SMILES string.

Experiment [1] relates to Pseudomonas aeruginosa IS 5563. The experiment is described as follows: Antimicrobial MIC / checkerboard assay for synergy with meropenem. It counts as cell-based. To be noted: for FIC: P. aeruginosa IS 5563, meropenem + compound, checkerboard. The method, then: (§1) Assays were conducted as described by Weigand et al. (Weigand, I.; Hilpert, K.; Hancock, R. E. Nat. Protocols 2008, 3, 163-175).
(§2) To determine the lowest concentration of an antimicrobial agent that inhibits visible growth of a microorganism, 50 μL of compound solution and 50 μL of buffer solution were added to each well at the desired concentration(s) (i.e. 4×the final concentration) as well as a zero control. Stock solutions of 10 mg/mL, were prepared in DMSO, followed by two-fold serial dilutions in Müeller-Hinton media and 100 μL of bacteria (ca. 5×10^5 CFU/mL) was added to each well. Plate counts were performed on the control wells to determine bacterial innoculum level. The innoculum was prepared by taking an overnight culture in Müeller-Hinton media and diluting to McFarland's 0.5 standard, and diluting a further 1:100 prior to addition to the plate. Lanes with no bacteria added served as sterility controls and lanes with no compound served as growth controls. Organisms were allowed to grow overnight at 37° C. in a humid environment and the plates were monitored at 625 nm for growth. MIC was determined to be the last well with no growth.
(§3) In the checkerboard assay one compound is serially diluted along the ordinate, and the second compound is serially diluted along the abscissa. […] A 50 μL aliquot of the compound was added to each well at the desired concentration(s) (i.e. 4×the final concentration) as well as a zero control. Stock solutions of 10 mg/mL of compound were prepared in DMSO, followed by two-fold serial dilutions in Müeller-Hinton media. Finally, 100 μL of bacteria (ca. 5×10^5 CFU/mL) was added to each well. Plate counts were performed on the control wells. Innoculum was prepared by taking an overnight culture in Müeller-Hinton media and diluting to McFarland's 0.5 standard, and diluting a further 1:100 prior to addition to the plate. […] The final volume in each well was 200 μL. The plates were allowed to grow overnight at 37° C. in a humid environment and were monitored at 625 nm for growth. […] Sterility controls and growth controls were included on each plate. The fractional inhibitory concentration (FIC) was determined as follows:
(§4) Results were interpreted in the following way: Synergistic if FIC≦0.5; Additive if […]; Indifferent if […]; Antagonistic if FIC≧2.0.

In experiment [2] the test system is Stenotrophomonas maltophilia IS 5568. The description is as above. The class given is cell-based. Conditions: for FIC: S. maltophilia IS 5568, meropenem + compound, checkerboard. How it is done:
as §1, §2, §3, §4

Experiment [3] relates to Chryseobacterium meningosepticum IS 5824. The experiment is described as above. It counts as cell-based. To be noted: for FIC: meropenem + compound, checkerboard. The method, then: as §1, §2
(§5) In the checkerboard assay one compound is serially diluted along the ordinate, and the second compound is serially diluted along the abscissa. […] A 50 μL aliquot of the compound was added to each well at the desired concentration(s) (i.e. 4×the final concentration) as well as a zero control. Stock solutions of 10 mg/mL of compound were prepared in DMSO, followed by two-fold serial dilutions in Müeller-Hinton media. Finally, 100 μL of bacteria (ca. 5×10^5 CFU/mL) was added to each well. Plate counts were performed on the control wells. Innoculum was prepared by taking an overnight culture in Müeller-Hinton media and diluting to McFarland's 0.5 standard, and diluting a further 1:100 prior to addition to the plate. Lanes with no bacteria added served as sterility controls and lanes with no meropenem or compound served as growth controls. The final volume in each well was 200 μL. The plates were allowed to grow overnight at 37° C. in a humid environment and were monitored at 625 nm for growth. […] Sterility controls and growth controls were included on each plate. The fractional inhibitory concentration (FIC) was determined as follows:
as §4

For experiment [4], the system named is Pseudomonas aeruginosa IS 6225. Described as above. The class given is cell-based. Conditions: P. aeruginosa IS 6225, meropenem + compound. How it is done: as §1, §2, §5, §4
For experiment [5], the system named is Stenotrophomonas maltophilia IS 6069. The experiment is described as above. The class given is cell-based. To be noted: S. maltophilia IS 6069, meropenem + compound. The method, then: as §1, §2, §5, §4
In experiment [6] the test system is Stenotrophomonas maltophilia IS 6081. The description is as above. The class given is cell-based. Conditions: S. maltophilia IS 6081, meropenem + compound. The method, then: as §1, §2, §5, §4
Experiment [7] concerns Pseudomonas aeruginosa C-10. The experiment is described as above. It counts as cell-based. To be noted: P. aeruginosa C-10; for FIC: meropenem + compound, checkerboard. The method, then: as §1, §2, §5, §4
In the next experiment the target is T1, IMP-1 (Serratia marcescens, UniProt P52699).
T1 construct: made in house; host or cells: Escherichia coli BL21(DE3) carrying pCIP4
The experiment is described as follows: Inhibition of IMP-1-catalyzed hydrolysis of meropenem in vitro (310 nm). The class given is biochemical. Conditions: for protection of meropenem from IMP-1-catalyzed hydrolysis in vitro: IMP-1 12 nM, meropenem 200 μM, test substance 100 μM, 310 nm.

The target of experiment [8] is T2, IMP-1 metallo-β-lactamase (Serratia marcescens, UniProt P52699).
T2 construct: made in house; host or cells: Escherichia coli BL21(DE3) carrying pCIP4
The experiment is described as follows: Inhibition of β-lactamases, nitrocefin hydrolysis. It counts as biochemical. An excerpt: IMP-1 metallo-β-lactamase was expressed in Esherichia coli BL21(DE3) carrying pCIP4 and purified as reported by Laraki et al. (Antimicrob. Agents Chemother. 1999, 43, 902-906). The homogeneity of the protein was confirmed by SDS-PAGE according to the method of Laemmli (Nature 1970, 227, 680-685). The molecular weight of purified IMP-1, Mr=25,112±0.5 Da, as determined by ESI-MS, was in agreement with that deduced from its amino acid sequence (Laraki et al. Antimicrob. Agents Chemother. 1999, 43, 890-901).
Assay conditions for IC50 determinations involved enzyme concentrations ranging between 2 and 6 nM. The concentration used for the nitrocefin substrate was 100 μM. Assays with OXA-10 and OXA-45 were conducted at pH 7.0 with 100 mM sodium phosphate buffer containing 25 mM sodium bicarbonate. Assays with KPC-2 and GC1 were performed at pH 7.0 in 50 mM HEPES buffer and assays with IMP-1 and VIM-2 were performed in the same buffer with the addition of 500 mM NaCl and 1 μM ZnSO4. BSA was used with all enzymes (except OXA-10 and KPC-2) at concentrations of 0.5-1.0 μg/mL.
Inhibitors were pre-incubated for 10 minutes at room temperature with enzyme assay solutions prior to the addition of the nitrocefin. These compounds were dissolved in DMSO and prepared at various concentrations such that the final concentration of DMSO was 1% during the pre-incubation. The reaction was initiated by the addition of the pre-incubated enzyme-cyclobutanone solution (90 μL) to a solution of nitrocefin in buffer (10 μL). Enzymatic activity was determined using the initial rate of increase in absorbance at 482 nm

For a further experiment, the system named is β-lactamases. The experiment is described as follows: β-Lactamase inhibition, result in words. It counts as biochemical. An excerpt:
In preferred embodiments, the compounds incorporate a good leaving group at the C3′ carbon that can be readily expelled as an anion. In some embodiments, the leaving group is a C3′-benzoylthio group, which may be substituted or unsubstituted, according to the definitions provided above for substituted or unsubstituted.
This effect correlates with the expected better leaving group ability of the benzoylthio group in the hydrolysis product versus the benzoate group in the comparative compound.

T1 sequence (P52699 19-246 limits assumed): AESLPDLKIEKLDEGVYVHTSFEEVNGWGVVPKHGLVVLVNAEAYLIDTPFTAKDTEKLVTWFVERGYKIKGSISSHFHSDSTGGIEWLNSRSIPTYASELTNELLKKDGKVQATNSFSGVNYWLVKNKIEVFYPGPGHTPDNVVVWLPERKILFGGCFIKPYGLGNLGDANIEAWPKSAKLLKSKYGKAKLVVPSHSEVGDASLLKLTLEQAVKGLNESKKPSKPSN
T2 sequence (P52699 19-246, looked up): as the sequence (P52699 19-246 limits assumed) above

On to `O=C(Cc1cccs1)N[C@@H]1C(=O)N2C(C(=O)O)=C(CSC(=O)c3ccccc3)CS[C@H]12` [CMPD B], for which the FIC in [1] is 0.1328; in experiment [2], 0.1289; in experiment [3] (C. meningosepticum IS 5824), 0.5078; in experiment [4], 0.375; in [5], 0.1875; in experiment [6], 0.1328.

On to `O=C(Cc1ccc(Cl)cc1)N[C@@H]1C(=O)N2C(C(=O)O)=C(CSC(=O)c3ccccc3)CS[C@H]12` [CMPD D], for which the FIC was 0.2519 in [1]; 0.126 in experiment [2]; 1 in experiment [7]; 0.2578 in experiment [3] (C. meningosepticum IS 5824); 2 in experiment [4]; 0.1875 in [5]. Also, the FIC in experiment [6] is given as 1.03.

As for `O=C(Cc1ccc(F)cc1)N[C@@H]1C(=O)N2C(C(=O)O)=C(CSC(=O)c3ccccc3)CS[C@H]12` [CMPD E], the FIC in [1] was found to be 0.1269; in experiment [2], 0.126; in [7], 0.625; in experiment [3] (C. meningosepticum IS 5824) it was 0.2578; in [4], 2; in experiment [5], 0.1875. Moreover, the FIC in experiment [6] is listed as 1.03.

For `COc1cccc(CC(=O)N[C@@H]2C(=O)N3C(C(=O)O)=C(CSC(=O)c4ccccc4)CS[C@H]23)c1` [CMPD F], the FIC in [1] is 0.2519; in experiment [2], 0.126; in [7], 1.5; in experiment [3] (C. meningosepticum IS 5824), 0.2578; in experiment [4] it was 3; in experiment [5] it was 0.1875. In addition, the FIC in [6] was 0.281.

On to `CC(=O)SCC1=C(C(=O)O)N2C(=O)[C@@H](NC(=O)Cc3cccs3)[C@H]2SC1` [Example 12, (6R,7R)-3-(acetylthiomethyl)-8-oxo-7-(2-(thiophen-2-yl)acetamido)-5-thia-1-azabicyclo[4.2.0]oct-2-ene-2-carboxylic acid], for which, at IMP-1, the “performance as inhibitor” value is “poor performance”.

`O=C(Cc1ccc(F)cc1)N[C@@H]1C(=O)N2C(C(=O)O)=C(CSC(=O)c3ccccc3)CS[C@H]12` [Example 16, (6R,7R)-3-(benzoylthiomethyl)-7-(2-(4-fluorophenyl)acetamido)-8-oxo-5-thia-1-azabicyclo[4.2.0]oct-2-ene-2-carboxylic acid]: the “protection of meropenem from IMP-1-catalyzed hydrolysis in vitro” value on IMP-1 is given as “good protection”.

As to `C[C@@H](O)[C@H]1C(=O)N2C(C(=O)O)=C(S[C@@H]3CN[C@H](C(=O)N(C)C)C3)[C@H](C)[C@H]12` [Mero, meropenem, reference compound], the MIC in [1] (Pseudomonas aeruginosa, IS5563, read-out: MIC Mero Alone, P. aeruginosa IS 5563) was 64 µg/mL; in [2] (Stenotrophomonas maltophilia, IS5568, read-out: MIC Mero Alone, S. maltophilia IS 5568) it was 64 µg/mL; in experiment [7] (Pseudomonas aeruginosa, C10, read-out: MIC Mero Alone), 16 µg/mL; in experiment [3] (Elizabethkingia meningoseptica, IS5824, read-out: MIC Mero Alone, C. meningosepticum IS 5824) it was 64 µg/mL. Further, the “MIC Mero Alone” value in [3] (C. meningosepticum IS 5824) was 32 µg/mL.

With `OC(=S)c1ccccc1` [benzoylthio, reference compound], the “inhibition of the MBL IMP-1” value in [8] is “poor inhibitor”.

Turning to `CO/N=C(\C(=O)N[C@@H]1C(=O)N2C(C(=O)O)=C(CSC(=O)c3ccco3)CS[C@H]12)c1csc(N)n1` [ceftiofur], on IMP-1, the “performance as inhibitor” value is given as “poor performance” and the “protection of meropenem from IMP-1-catalyzed hydrolysis in vitro” value is listed as “relatively poor protection”.

In the case of `O=C(Cc1cccs1)NC1C(=O)N2C(C(=O)O)=C(COC(=O)c3ccccc3)CSC12` (centres unmarked) [oxygen analogue, reference compound], the “β-lactamase inhibition” value in the experiment with β-lactamases is on record as “substrate but not an inhibitor”.
